# Assay results from PubChem BioAssay AID1745844 (Carcinogenic Potency Database (CPDB), 2022).
# Values joined by “and” are separate entries in the source; they are usually repeats but may differ in a detail not shown here. Equal values may be shown once. Active and inactive are the calls of the source. The rule behind the calls is not given here.
# Tested on: rodent lifetime carcinogenesis bioassay, tumor incidence TD50
# Test: chronic cancer bioassays in animals – CPDB, compiled studies (AID 1745844)
smiles,measurement,setting,value
Oc1ccc2c(c1)OCO2,TD50,"mouse, strain B6C3F1, females, in feed, site: forestomach, lesion: sarcoma, dosed 96 weeks, study length 96 weeks",44800 mg/kg/day
same,TD50,"mouse, strain B6C3F1, females, in feed, site: forestomach, lesion: squamous-cell carcinoma, dosed 96 weeks, study length 96 weeks",8330 mg/kg/day
same,TD50,"mouse, strain B6C3F1, females, in feed, site: liver, lesion: hyperplastic nodule, dosed 96 weeks, study length 96 weeks",44800 mg/kg/day
same,TD50,"mouse, strain B6C3F1, males, in feed, site: forestomach, lesion: squamous-cell carcinoma, dosed 96 weeks, study length 96 weeks",3070 mg/kg/day
same,TD50,"mouse, strain B6C3F1, males, in feed, site: lung, lesion: adenoma, dosed 96 weeks, study length 96 weeks",41300 mg/kg/day
same,TD50,"mouse, strain B6C3F1, males, in feed, site: stomach, glandular, lesion: sarcoma, dosed 96 weeks, study length 96 weeks",41300 mg/kg/day
same,TD50,"rat, strain F344/DuCrj, females, in feed, site: forestomach, lesion: papilloma, dosed 104 weeks, study length 104 weeks",1090 mg/kg/day
same,TD50,"rat, strain F344/DuCrj, females, in feed, site: forestomach, lesion: squamous-cell carcinoma, dosed 104 weeks, study length 104 weeks",6500 mg/kg/day
same,TD50,"rat, strain F344/DuCrj, males, in feed, site: forestomach, lesion: papilloma, dosed 104 weeks, study length 104 weeks",1350 mg/kg/day
same,TD50,"rat, strain F344/DuCrj, males, in feed, site: forestomach, lesion: several types, types named in the paper, dosed 60 weeks, study length 60 weeks",708 mg/kg/day
same,TD50,"rat, strain F344/DuCrj, males, in feed, site: forestomach, lesion: squamous-cell carcinoma, dosed 60 weeks, study length 60 weeks",3920 mg/kg/day
same,TD50,"rat, strain F344/DuCrj, males, in feed, site: forestomach, lesion: squamous-cell carcinoma, dosed 104 weeks, study length 104 weeks",1540 mg/kg/day
same,TD50,"rat, strain F344/DuCrj, males, in feed, site: forestomach, lesion: squamous-cell papilloma, dosed 60 weeks, study length 60 weeks",909 mg/kg/day
same,TD50,"rat, strain F344/DuCrj, males, in feed, site: stomach, glandular, lesion: adenoma, dosed 104 weeks, study length 104 weeks",16200 mg/kg/day
O=c1c(O)c(-c2ccc(O)c(O)c2)oc2cc(O)cc(O)c12,carcinogen call,"hamster, strain Syrian Golden, females, in feed, site: forestomach, lesion: papilloma, dosed 50 weeks, study length 100 weeks",negative (inactive)
same,TD50,"hamster, strain Syrian Golden, females, in feed, site: forestomach, lesion: papilloma, dosed 101 weeks, study length 101 weeks",18900 mg/kg/day (inactive)
same,carcinogen call,"hamster, strain Syrian Golden, females, in feed, site: forestomach, lesion: papilloma, dosed 104 weeks, study length 104 weeks",negative (inactive)
same,TD50,"hamster, strain Syrian Golden, females, in feed, site: ileum, lesion: adenocarcinoma, dosed 104 weeks, study length 104 weeks",140000 mg/kg/day (inactive)
same,TD50,"hamster, strain Syrian Golden, females, in feed, site: uterus, lesion: leiomyoma, dosed 101 weeks, study length 101 weeks",39200 mg/kg/day (inactive)
same,carcinogen call,"hamster, strain Syrian Golden, males, in feed, site: adrenal gland, lesion: cortical adenoma, dosed 101 weeks, study length 101 weeks",negative (inactive)
same,carcinogen call,"hamster, strain Syrian Golden, males, in feed, site: adrenal gland, lesion: cortical adenoma, dosed 104 weeks, study length 104 weeks",negative (inactive)
same,TD50,"hamster, strain Syrian Golden, males, in feed, site: forestomach, lesion: papilloma, dosed 50 weeks, study length 100 weeks",1440 mg/kg/day (inactive)
same,carcinogen call,"hamster, strain Syrian Golden, males, in feed, site: forestomach, lesion: papilloma, dosed 101 weeks, study length 101 weeks",negative (inactive)
same,TD50,"hamster, strain Syrian Golden, males, in feed, site: forestomach, lesion: papilloma, dosed 104 weeks, study length 104 weeks",56700 mg/kg/day (inactive)
same,carcinogen call,"mouse, strain DDY, females, in feed, site: liver, lesion: one or several types, types not named, dosed 120 weeks, study length 120 weeks",negative (inactive)
same,TD50,"mouse, strain DDY, females, in feed, site: lung, lesion: several types, types named in the paper, dosed 120 weeks, study length 120 weeks",4240 mg/kg/day (inactive)
same,TD50,"mouse, strain DDY, males, in feed, site: heart, lesion: spindle-cell sarcoma, dosed 115 weeks, study length 115 weeks",73400 mg/kg/day (inactive)
same,TD50,"mouse, strain DDY, males, in feed, site: liver, lesion: several types, types named in the paper, dosed 115 weeks, study length 115 weeks",15100 mg/kg/day (inactive)
same,TD50,"mouse, strain DDY, males, in feed, site: lung, lesion: several types, types named in the paper, dosed 115 weeks, study length 115 weeks",5460 mg/kg/day (inactive)
same,carcinogen call,"rat, strain ACI, females, in feed, site: adrenal gland, lesion: cortical adenoma, dosed 77 weeks, study length 77 weeks",negative (inactive)
same,TD50,"rat, strain ACI, females, in feed, site: adrenal gland, lesion: cortical adenoma, dosed 121 weeks, study length 121 weeks",226000 mg/kg/day (inactive)
same,carcinogen call,"rat, strain ACI, females, in feed, site: pituitary gland, lesion: adenoma, dosed 77 weeks, study length 77 weeks",negative (inactive)
same,TD50,"rat, strain ACI, females, in feed, site: pituitary gland, lesion: adenoma, dosed 121 weeks, study length 121 weeks",461000 mg/kg/day (inactive)
same,TD50,"rat, strain ACI, females, in feed, site: thigh, lesion: sarcoma, dosed 121 weeks, study length 121 weeks",90400 mg/kg/day (inactive)
same,TD50,"rat, strain ACI, males, in feed, site: adrenal gland, lesion: pheochromocytoma, dosed 77 weeks, study length 77 weeks",7130 mg/kg/day (inactive)
same,TD50,"rat, strain ACI, males, in feed, site: cecum, lesion: adenocarcinoma, dosed 121 weeks, study length 121 weeks",35200 mg/kg/day (inactive)
same,TD50,"rat, strain ACI, males, in feed, site: cecum, lesion: adenoma, dosed 77 weeks, study length 77 weeks",7130 mg/kg/day (inactive)
same,TD50,"rat, strain ACI, males, in feed, site: cecum, lesion: adenoma, dosed 121 weeks, study length 121 weeks",72300 mg/kg/day (inactive)
same,TD50,"rat, strain ACI, males, in feed, site: pancreas, lesion: exocrine adenoma, dosed 121 weeks, study length 121 weeks",72300 mg/kg/day (inactive)
same,TD50,"rat, strain ACI, males, in feed, site: testis, lesion: interstitial-cell tumor, dosed 77 weeks, study length 77 weeks",2290 mg/kg/day (inactive)
same,TD50,"rat, strain F344/DuCrj, females, in feed, site: all sites, lesion: lymphoma and leukemia, combined, dosed 104 weeks, study length 112 weeks",7860 mg/kg/day (inactive)
same,carcinogen call,"rat, strain F344/DuCrj, females, in feed, site: liver, lesion: hyperplastic nodule, dosed 104 weeks, study length 112 weeks",negative (inactive)
same,TD50,"rat, strain F344/DuCrj, females, in feed, site: uterus, lesion: endometrial stromal polyp, dosed 104 weeks, study length 112 weeks",19300 mg/kg/day (inactive)
same,TD50,"rat, strain F344/DuCrj, males, in feed, site: all sites, lesion: lymphoma and leukemia, combined, dosed 104 weeks, study length 112 weeks",1160 mg/kg/day (inactive)
same,TD50,"rat, strain F344/DuCrj, males, in feed, site: liver, lesion: hyperplastic nodule, dosed 104 weeks, study length 112 weeks",66800 mg/kg/day (inactive)
same,TD50,"rat, strain Fischer 344, females, in feed, site: adrenal gland, lesion: cortical adenoma, dosed 77 weeks, study length 77 weeks",118 mg/kg/day (inactive)
same,carcinogen call,"rat, strain Fischer 344, females, in feed, site: any site (literature study), lesion: several types, types named in the paper, dosed 64 weeks, study length 64 weeks",negative (inactive)
same,TD50,"rat, strain Fischer 344, females, in feed, site: liver, lesion: hepatocellular adenoma + hepatocellular carcinoma + neoplastic nodule, dosed 103 weeks, study length 103 weeks",75700 mg/kg/day
same,TD50,"rat, strain Fischer 344, females, in feed, site: tongue, lesion: squamous-cell carcinoma, dosed 103 weeks, study length 103 weeks",36500 mg/kg/day (inactive)
same,carcinogen call,"rat, strain Fischer 344, males, in feed, site: any site (literature study), lesion: several types, types named in the paper, dosed 64 weeks, study length 64 weeks",negative (inactive)
same,carcinogen call,"rat, strain Fischer 344, males, in feed, site: any site (literature study), lesion: several types, types named in the paper, dosed 77 weeks, study length 77 weeks",negative (inactive)
same,TD50,"rat, strain Fischer 344, males, in feed, site: kidney, lesion: tubule adenoma + tubular-cell adenocarcinoma, dosed 103 weeks, study length 103 weeks",8990 mg/kg/day and 5250 mg/kg/day
same,TD50,"rat, strain Fischer 344, males, in feed, site: kidney, lesion: tubule adenoma, dosed 103 weeks, study length 103 weeks",12500 mg/kg/day and 6030 mg/kg/day
same,TD50,"rat, strain Norwegian albino, females, in feed, site: ileum, lesion: adenocarcinoma, dosed 58 weeks, study length 58 weeks",15.4 mg/kg/day
same,TD50,"rat, strain Norwegian albino, females, in feed, site: ileum, lesion: several types, types named in the paper, dosed 58 weeks, study length 58 weeks",5.12 mg/kg/day
same,TD50,"rat, strain Norwegian albino, females, in feed, site: urinary bladder, lesion: several types, types named in the paper, dosed 58 weeks, study length 58 weeks",51.3 mg/kg/day
same,carcinogen call,"rat, strain Norwegian albino, males, in feed, site: ileum, lesion: several types, types named in the paper, dosed 58 weeks, study length 58 weeks",positive
same,TD50,"rat, strain Norwegian albino, males, in feed, site: urinary bladder, lesion: transitional-cell carcinoma, dosed 58 weeks, study length 58 weeks",21 mg/kg/day
CCOC(=O)C(O)(c1ccc(Cl)cc1)c1ccc(Cl)cc1,TD50,"mouse, strain B6AKF1, females, oral dosing, site: any site (literature study), lesion: several types, types named in the paper, dosed 82 weeks, study length 82 weeks",621 mg/kg/day
same,TD50,"mouse, strain B6AKF1, females, oral dosing, site: lung, lesion: adenoma, dosed 82 weeks, study length 82 weeks",621 mg/kg/day
same,TD50,"mouse, strain B6AKF1, males, oral dosing, site: any site (literature study), lesion: several types, types named in the paper, dosed 82 weeks, study length 82 weeks",72.8 mg/kg/day
same,TD50,"mouse, strain B6AKF1, males, oral dosing, site: liver, lesion: hepatoma, dosed 82 weeks, study length 82 weeks",69.8 mg/kg/day
same,TD50,"mouse, strain B6C3F1, females, in feed, site: any site (literature study), lesion: several types, types named in the paper, dosed 78 weeks, study length 90 weeks",3930 mg/kg/day
same,TD50,"mouse, strain B6C3F1, females, in feed, site: liver, lesion: hepatocellular adenoma + hepatocellular carcinoma + neoplastic nodule, dosed 78 weeks, study length 90 weeks",848 mg/kg/day
same,TD50,"mouse, strain B6C3F1, females, in feed, site: liver, lesion: hepatocellular carcinoma, dosed 78 weeks, study length 90 weeks",848 mg/kg/day
same,TD50,"mouse, strain B6C3F1, females, oral dosing, site: any site (literature study), lesion: several types, types named in the paper, dosed 82 weeks, study length 82 weeks",302 mg/kg/day
same,TD50,"mouse, strain B6C3F1, females, oral dosing, site: lung, lesion: adenoma, dosed 82 weeks, study length 82 weeks",621 mg/kg/day
same,TD50,"mouse, strain B6C3F1, males, in feed, site: any site (literature study), lesion: several types, types named in the paper, dosed 78 weeks, study length 90 weeks",256 mg/kg/day
same,TD50,"mouse, strain B6C3F1, males, in feed, site: liver, lesion: hepatocellular adenoma + hepatocellular carcinoma + neoplastic nodule, dosed 78 weeks, study length 90 weeks",235 mg/kg/day
same,TD50,"mouse, strain B6C3F1, males, in feed, site: liver, lesion: hepatocellular carcinoma, dosed 78 weeks, study length 90 weeks",235 mg/kg/day
same,TD50,"mouse, strain B6C3F1, males, oral dosing, site: any site (literature study), lesion: several types, types named in the paper, dosed 82 weeks, study length 82 weeks",31.7 mg/kg/day
same,TD50,"mouse, strain B6C3F1, males, oral dosing, site: liver, lesion: hepatoma, dosed 82 weeks, study length 82 weeks",43.8 mg/kg/day
same,carcinogen call,"rat, strain Carworth Farms, females, in feed, site: mammary gland, lesion: adenofibroma, dosed 104 weeks, study length 104 weeks",negative (inactive)
same,TD50,"rat, strain Osborne-Mendel, females, in feed, site: adrenal gland, lesion: cortical adenoma, dosed 78 weeks, study length 110 weeks",490 mg/kg/day (inactive)
same,TD50,"rat, strain Osborne-Mendel, males, in feed, site: adrenal gland, lesion: cortical adenoma, dosed 78 weeks, study length 110 weeks",186 mg/kg/day (inactive)
same,TD50,"rat, strain Osborne-Mendel, males, in feed, site: liver, lesion: hepatocellular adenoma + hepatocellular carcinoma + neoplastic nodule, dosed 78 weeks, study length 110 weeks",1600 mg/kg/day
O=C(O[C@@H]1Cc2c(O)cc(O)cc2O[C@@H]1c1cc(O)c(O)c(O)c1)c1cc(O)c(O)c(O)c1,carcinogen call,"mouse, strain C3H/HeN, males, in drinking water, site: liver, lesion: several types, types named in the paper, dosed 58 weeks, study length 58 weeks",negative (inactive)
CC1=C2C(=CO[C@H](C)[C@H]2C)C(=O)C(C(=O)O)=C1O,carcinogen call,"rat, strain Fischer 344, males, in feed, site: kidney, lesion: clear-cell adenoma, dosed 60 weeks, study length 60 weeks",positive
same,carcinogen call,"rat, strain Fischer 344, males, in feed, site: kidney, lesion: clear-cell adenoma, dosed 80 weeks, study length 80 weeks",positive
CC(O)CO (stereo unspecified),carcinogen call,"rat, strain Charles River CD (Sprague-Dawley), females, in feed, site: liver, lesion: nodular hyperplasia, dosed 104 weeks, study length 104 weeks",negative (inactive)
same,carcinogen call,"rat, strain Charles River CD (Sprague-Dawley), males, in feed, site: liver, lesion: nodular hyperplasia, dosed 104 weeks, study length 104 weeks",negative (inactive)
